Assay results: ChEMBL document CHEMBL5244281, “Tackling multidrug-resistant Staphylococcus aureus by natural products and their analogues acting as NorA efflux pump inhibitors” (Bioorg Med Chem, 2023)
≈ marks a conversion by molar mass, not a printed value.

Legend:
Staphylococcus aureus [1] = assay: Synergistic antibacterial activity against Staphylococcus aureus 1199B overexpressing NorA gene assessed as fractional inhibitory concentration index at 128 ug/ml in presence of norfloxacin; type: functional; conditions: dose 128 µg/ml
Staphylococcus aureus [2] = assay: Antibacterial activity against Staphylococcus aureus 1199B overexpressing NorA assessed as bacterial growth inhibition incubated for 18 hrs by MTT assay; type: functional
Staphylococcus aureus [3] = assay: Antibacterial activity against tetracycline-resistant Staphylococcus aureus XU212 assessed as bacterial growth inhibition incubated for 18 hrs by MTT assay; type: functional
Staphylococcus aureus [4] = assay: Antibacterial activity against Staphylococcus aureus ATCC25923 assessed as bacterial growth inhibition incubated for 18 hrs by MTT assay; type: functional
Staphylococcus aureus [5] = assay: Antibacterial activity against Staphylococcus aureus RN4220 assessed as bacterial growth inhibition incubated for 18 hrs by MTT assay; type: functional
Staphylococcus aureus [6] = assay: Antibacterial activity against Staphylococcus aureus EMRSA-15 assessed as bacterial growth inhibition incubated for 18 hrs by MTT assay; type: functional
Staphylococcus aureus [7] = assay: Antibacterial activity against Staphylococcus aureus EMRSA-16 assessed as bacterial growth inhibition incubated for 18 hrs by MTT assay; type: functional
Staphylococcus aureus [8] = assay: Synergistic antibacterial activity against Staphylococcus aureus 1199B overexpressing NorA assessed as fractional Inhibitory concentration index at 64 ug/ml in presence of norfloxacin by broth dilution method; type: functional; conditions: dose 64 µg/ml
Staphylococcus aureus [9] = assay: Synergistic antibacterial activity against Staphylococcus aureus RN4220 assessed as fractional Inhibitory concentration index at 64 ug/ml in presence of norfloxacin by broth dilution method; type: functional; conditions: dose 64 µg/ml
Staphylococcus aureus [10] = assay: Synergistic antibacterial activity against Staphylococcus aureus EMRSA-15 assessed as fractional Inhibitory concentration index at 64 ug/ml in presence of norfloxacin by broth dilution method; type: functional; conditions: dose 64 µg/ml
[11] = biological target: T1, Quinolone resistance protein NorA (Staphylococcus aureus) (UniProt P0A0J7); conditions: 1199B, dose 64.0 µg/ml
T1 sequence (whole entry): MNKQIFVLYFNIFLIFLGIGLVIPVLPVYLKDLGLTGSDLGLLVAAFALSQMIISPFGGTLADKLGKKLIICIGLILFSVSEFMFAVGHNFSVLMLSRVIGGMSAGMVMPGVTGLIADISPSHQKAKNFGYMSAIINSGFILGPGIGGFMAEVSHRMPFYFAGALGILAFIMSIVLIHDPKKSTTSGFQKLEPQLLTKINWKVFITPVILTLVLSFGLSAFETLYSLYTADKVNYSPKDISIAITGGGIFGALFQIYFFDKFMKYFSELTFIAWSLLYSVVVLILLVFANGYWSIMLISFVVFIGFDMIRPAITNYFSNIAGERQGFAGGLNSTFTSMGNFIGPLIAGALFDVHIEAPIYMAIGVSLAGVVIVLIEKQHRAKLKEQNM

Staphylococcus aureus [12] = assay: Antibacterial activity against norfloxacin resistant Staphylococcus aureus 1199B harboring NorA efflux pump gene assessed as bacterial growth inhibition incubated for 24 hrs by resazurin based microdilution test; type: functional
Staphylococcus aureus [13] = assay: Antibacterial activity against Staphylococcus aureus ATCC 25923 assessed as bacterial growth inhibition incubated for 24 hrs by resazurin based microdilution test; type: functional
Escherichia coli [14] = assay: Antibacterial activity against Escherichia coli ATCC 25922 assessed as bacterial growth inhibition incubated for 24 hrs by resazurin based microdilution test; type: functional
Staphylococcus aureus [15] = assay: Antibacterial activity against norfloxacin resistant Staphylococcus aureus IS-58 overexpressing TetK efflux pump gene assessed as bacterial growth inhibition incubated for 18 to 24 hrs by NCCLS protocol based microdilution method; type: functional; conditions: time 18-24 hrs
Staphylococcus aureus [16] = assay: Antibacterial activity against norfloxacin resistant Staphylococcus aureus RN4220 overexpressing MsrA efflux pump gene assessed as bacterial growth inhibition incubated for 18 to 24 hrs by NCCLS protocol based microdilution method; type: functional; conditions: time 18-24 hrs
Staphylococcus aureus [17] = assay: Antibacterial activity against norfloxacin resistant Staphylococcus aureus 1199B overexpressing NorA efflux pump gene assessed as bacterial growth inhibition incubated for 18 to 24 hrs by NCCLS protocol based microdilution method; type: functional; conditions: time 18-24 hrs
[18] = biological target: T1, Quinolone resistance protein NorA (Staphylococcus aureus); assay: Inhibition of NorA efflux pump in Staphylococcus aureus 1199B overexpressing NorA efflux pump assessed as reduction in EtBr MIC at 128 ug/ml using EtBr as substrate by resazurin based assay (Rvb= 32 ug/ml); conditions: dose 128.0 µg/ml
Staphylococcus aureus [19] = assay: Antibacterial activity against norfloxacin resistant Staphylococcus aureus 1199B harboring NorA efflux pump assessed as bacterial growth inhibition incubated for 24 hrs by CLSI protocol based broth microdilution method; type: functional
[20] = biological target: T1, Quinolone resistance protein NorA (Staphylococcus aureus); assay: Modulation of norfloxacin-induced inhibition of NorA efflux pump in Staphylococcus aureus 1199B overexpressing NorA efflux pump assessed as reduction in norfloxacin MIC at 1/4 times of MIC by resazurin based assay
Staphylococcus aureus [21] = assay: Antimicrobial activity against Staphylococcus aureus assessed as bacterial growth inhibition incubated for 18 to 24 hrs by broth microdilution method; type: functional; conditions: time 18-24 hrs
Bacillus subtilis = assay: Antimicrobial activity against Bacillus subtilis assessed as bacterial growth inhibition incubated for 18 to 24 hrs by broth microdilution method; type: functional; conditions: time 18-24 hrs
Enterococcus faecalis = assay: Antimicrobial activity against Enterococcus faecalis assessed as bacterial growth inhibition incubated for 18 to 24 hrs by broth microdilution method; type: functional; conditions: time 18-24 hrs
Escherichia coli [22] = assay: Antimicrobial activity against Escherichia coli assessed as bacterial growth inhibition incubated for 18 to 24 hrs by broth microdilution method; type: functional; conditions: time 18-24 hrs
Vibrio cholerae = assay: Antimicrobial activity against Vibrio cholerae assessed as bacterial growth inhibition incubated for 18 to 24 hrs by broth microdilution method; type: functional; conditions: time 18-24 hrs
Klebsiella pneumoniae = assay: Antimicrobial activity against Klebsiella pneumoniae assessed as bacterial growth inhibition incubated for 18 to 24 hrs by broth microdilution method; type: functional; conditions: time 18-24 hrs
Proteus vulgaris = assay: Antimicrobial activity against Proteus vulgaris assessed as bacterial growth inhibition incubated for 18 to 24 hrs by broth microdilution method; type: functional; conditions: time 18-24 hrs
Proteus mirabilis = assay: Antimicrobial activity against Proteus mirabilis assessed as bacterial growth inhibition incubated for 18 to 24 hrs by broth microdilution method; type: functional; conditions: time 18-24 hrs
Shigella dysenteriae = assay: Antimicrobial activity against Shigella dysenteriae assessed as bacterial growth inhibition incubated for 18 to 24 hrs by broth microdilution method; type: functional; conditions: time 18-24 hrs
Pseudomonas aeruginosa = assay: Antimicrobial activity against Pseudomonas aeruginosa assessed as bacterial growth inhibition incubated for 18 to 24 hrs by broth microdilution method; type: functional; conditions: time 18-24 hrs
Staphylococcus aureus [23] = assay: Antibacterial activity against Staphylococcus aureus IS-58 overexpressing TetK pump assessed as bacterial growth inhibition incubated for 24 hrs by resazurin based broth dilution method; type: functional
Staphylococcus aureus [24] = assay: Antibacterial activity against methicillin-resistant Staphylococcus aureus RN4220/pUL5054 overexpressing MsrA efflux pump assessed as bacterial growth inhibition incubated for 24 hrs by resazurin based broth dilution method; type: functional
Staphylococcus aureus [25] = assay: Antibacterial activity against methicillin-resistant Staphylococcus aureus 1199B overexpressing NorA efflux pump assessed as bacterial growth inhibition incubated for 24 hrs by resazurin based broth dilution method; type: functional
Staphylococcus aureus [26] = assay: Antibacterial activity against methicillin-resistant Staphylococcus aureus 1199 assessed as bacterial growth inhibition incubated for 24 hrs by resazurin based broth dilution method; type: functional
Staphylococcus aureus [27] = assay: Potentiation of erythromycin-induced inhibition of MsrA pump in Staphylococcus aureus RN4220/pUL5054 assessed as reduction in erythromycin MIC incubated for 24 hrs by Resazurin based assay (RVB= 645.08 ug/ml)
Staphylococcus aureus [28] = conditions: IS-58, time 24.0 hrs
[29] = biological target: T1, Quinolone resistance protein NorA (Staphylococcus aureus); conditions: 1199B, time 24.0 hrs
Staphylococcus aureus [30] = conditions: IS-58, time 24.0 hrs; remark: listed apart in the source
[31] = biological target: T1, Quinolone resistance protein NorA (Staphylococcus aureus); conditions: 1199B, time 24.0 hrs; remark: listed apart in the source
Staphylococcus aureus [32] = assay: Synergistic antibacterial activity against Staphylococcus aureus 1199B overexpressing NorA efflux pump assessed as fractional inhibitory concentration index in presence of norfloxacin by chequer board assay; type: functional

COc1cc(-c2oc3cc(OC)c(OC)c(O)c3c(=O)c2OC)ccc1O [CHRYSOSPLENOL B]
fractional inhibitory concentration index (FICI) (Staphylococcus aureus [1]): 0.375

COc1ccc(-c2cc(=O)c3c(O)cc(O)cc3o2)cc1O [DIOSMETIN]
MIC (Staphylococcus aureus [2]): 32 µg/mL (≈ 107 µM) | MIC (Staphylococcus aureus [3]): 32 µg/mL (≈ 107 µM) | MIC (Staphylococcus aureus [4]): 32 µg/mL (≈ 107 µM) | MIC (Staphylococcus aureus [5]): 32 µg/mL (≈ 107 µM) | MIC (Staphylococcus aureus [6]): 32 µg/mL (≈ 107 µM) | MIC (Staphylococcus aureus [7]): 8 µg/mL (≈ 26.6 µM) | fractional inhibitory concentration index (FICI) (Staphylococcus aureus [8]): 0.38 | fractional inhibitory concentration index (FICI) (Staphylococcus aureus [9]): 0.38 | fractional inhibitory concentration index (FICI) (Staphylococcus aureus [10]): 0.09 | MIC [11]: 16 µg/mL (≈ 53.3 µM)

Oc1ccc2c(c1)O[C@H](c1ccc(O)c(O)c1)[C@@H](O)C2 [FISETINIDOL]
MIC (Staphylococcus aureus [12]): ≥ 1020 µg/mL | MIC (Staphylococcus aureus [13]): ≥ 1020 µg/mL | MIC (Escherichia coli [14]): ≥ 1020 µg/mL

COc1c2ccoc2c(OC)c2oc(=O)ccc12 [ISOPIMPINELLIN]
MIC (Staphylococcus aureus [15]): > 256 µg/mL | MIC (Staphylococcus aureus [16]): > 256 µg/mL | MIC (Staphylococcus aureus [17]): > 256 µg/mL | MIC [18]: 4 µg/mL

O=c1c(O)c(-c2cc(O)c(O)c(O)c2)oc2cc(O)cc(O)c12 [MYRICETIN]
MIC (Staphylococcus aureus [19]): 256 µg/mL (≈ 804 µM) | MIC [20]: 256 µg/mL

COc1cc(O)c2c(c1)O[C@H](c1ccccc1)CC2=O [PINOSTROBIN]
MIC (Staphylococcus aureus [21]): 64 µg/mL (≈ 237 µM) | MIC (Bacillus subtilis): 12 µg/mL (≈ 44.4 µM) | MIC (Enterococcus faecalis): 12 µg/mL (≈ 44.4 µM) | MIC (Escherichia coli [22]): 12 µg/mL (≈ 44.4 µM) | MIC (Vibrio cholerae): 24 µg/mL (≈ 88.8 µM) | MIC (Klebsiella pneumoniae): 18 µg/mL (≈ 66.6 µM) | MIC (Proteus vulgaris): 18 µg/mL (≈ 66.6 µM) | MIC (Proteus mirabilis): 32 µg/mL (≈ 118 µM) | MIC (Shigella dysenteriae): 12 µg/mL (≈ 44.4 µM) | MIC (Pseudomonas aeruginosa): 32 µg/mL (≈ 118 µM)

O=c1c(O)c(-c2ccc(O)c(O)c2)oc2cc(O)cc(O)c12 [QUERCETIN]
MIC (Staphylococcus aureus [23]): 512 µg/mL (≈ 1690 µM) | MIC (Staphylococcus aureus [24]): ≥ 1020 µg/mL | MIC (Staphylococcus aureus [25]): ≥ 1020 µg/mL | MIC (Staphylococcus aureus [26]): ≥ 1020 µg/mL | MIC (Staphylococcus aureus [27]): 512 µg/mL | MIC (Staphylococcus aureus [28]): 128 µg/mL (≈ 424 µM) | MIC [29]: 128 µg/mL (≈ 424 µM) | MIC (Staphylococcus aureus [30]): 12.7 µg/mL (≈ 42 µM) | MIC [31]: 12.7 µg/mL (≈ 42 µM)

C=C(C)[C@H](CC=C(C)C)Cc1c(O)cc(O)c2c1O[C@H](c1ccc(O)cc1O)CC2=O [SOPHORAFLAVANONE G]
fractional inhibitory concentration index (FICI) (Staphylococcus aureus [32]): 0.188
